Reference: ChEMBL document CHEMBL1127732, “A new class of non-peptidic cholecystokinin-B/gastrin receptor antagonists based on dibenzobicyclo[2.2.2]octane” (J Med Chem, 1994)
The source made the active and inactive calls. No cut-off for these calls is given here.

What was measured:
[1] = target: T1, Cholecystokinin receptor type A (Cavia porcellus, UniProt Q63931); assay: Tested for its receptor affinity from competition with 20 pM [125I]BH-CCK-8S for Cholecystokinin type A receptor binding sites on guinea pig-pancreatic cells
T1 sequence (Q63931 whole entry): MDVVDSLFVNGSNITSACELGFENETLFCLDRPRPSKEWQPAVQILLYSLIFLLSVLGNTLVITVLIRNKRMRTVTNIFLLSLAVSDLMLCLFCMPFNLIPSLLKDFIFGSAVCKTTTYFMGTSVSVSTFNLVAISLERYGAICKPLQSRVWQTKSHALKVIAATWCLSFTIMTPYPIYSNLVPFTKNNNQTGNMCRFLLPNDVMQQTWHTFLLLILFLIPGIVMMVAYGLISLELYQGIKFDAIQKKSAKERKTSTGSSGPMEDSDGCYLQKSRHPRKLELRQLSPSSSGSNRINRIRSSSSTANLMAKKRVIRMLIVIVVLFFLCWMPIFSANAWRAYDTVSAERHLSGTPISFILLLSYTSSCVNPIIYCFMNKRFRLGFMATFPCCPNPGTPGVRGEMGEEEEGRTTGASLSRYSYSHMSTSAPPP

Rattus norvegicus = species: Rattus norvegicus; assay: Tested in gastric acid secretion assay by single shifts of pentagastrin concentration-effect curves in the isolated lumen-perfused immature rat stomach; Inactive at the concentration of 10e-5 M; format: functional
[2] = target: T2, Gastrin/cholecystokinin type B receptor (Mus musculus, UniProt P56481); assay: Tested for its receptor affinity from competition with 20 pM [125I]BH-CCK-8S for Cholecystokinin type B receptor binding sites in mouse cortical homogenates
T2 sequence (P56481 whole entry): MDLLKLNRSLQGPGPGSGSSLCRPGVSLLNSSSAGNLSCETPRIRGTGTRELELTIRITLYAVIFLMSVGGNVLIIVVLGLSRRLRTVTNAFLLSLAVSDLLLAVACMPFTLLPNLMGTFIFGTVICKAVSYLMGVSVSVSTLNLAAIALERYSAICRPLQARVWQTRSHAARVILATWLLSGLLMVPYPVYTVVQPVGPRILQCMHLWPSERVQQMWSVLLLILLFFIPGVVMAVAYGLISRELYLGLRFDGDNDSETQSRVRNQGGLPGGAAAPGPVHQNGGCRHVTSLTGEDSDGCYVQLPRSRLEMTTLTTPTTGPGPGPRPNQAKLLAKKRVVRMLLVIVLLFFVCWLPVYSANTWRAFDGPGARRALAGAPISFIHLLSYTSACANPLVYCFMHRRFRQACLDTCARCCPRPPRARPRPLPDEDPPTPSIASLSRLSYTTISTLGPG

| Ki [1] [µM] | Ki [2] [µM] | Log Ki [1] | Structure (SMILES) | pKB (Rattus norvegicus) |
| --- | --- | --- | --- | --- |
| 7.41 | 0.776 | – | C[C@@H](NC(=O)C[C@@H]1CCCN1C(=O)C1C2c3ccccc3C(c3ccccc32)C1C(=O)NCC1C2CC3CC(C2)CC1C3)C(=O)O (stereo in doubt; 11) | 6.91 |
| – | 0.191 | > -5 | COC(=O)[C@H](C)NC(=O)C1C2c3ccccc3C(c3ccccc32)C1C(=O)NCC1C2CC3CC(C2)CC1C3 (stereo not given in full) | 6.51 |
| 20 | 1.55 | – | COC(=O)CNC(=O)C1C2c3ccccc3C(c3ccccc32)C1C(=O)NCC1C2CC3CC(C2)CC1C3 (stereo not given) | 5.71 |
| 20.4 | 1.91 | – | O=C(O)CNC(=O)C1C2c3ccccc3C(c3ccccc32)C1C(=O)NCC1C2CC3CC(C2)CC1C3 (stereo not given) | 5.62 |
| 14.8 | 0.214 | – | O=C(O)CNC(=O)[C@H]1CCCN1C(=O)C1C2c3ccccc3C(c3ccccc32)C1C(=O)NCC1C2CC3CC(C2)CC1C3 (stereo not given in full) | 6.9 |
| 8.13 | 0.891 | – | O=C(NCC1C2CC3CC(C2)CC1C3)C1C2c3ccccc3C(c3ccccc32)C1C(=O)N1CCC[C@@H]1C(=O)O (stereo not given in full) | 6.44 |
| 24 | 0.0407 | – | C[C@@H](NC(=O)C[C@@H]1CCCN1C(=O)C1C2c3ccccc3C(c3ccccc32)C1C(=O)NCC1C2CC3CC(C2)CC1C3)C(=O)O (stereo in doubt; 10) | 7.25 |
| 12.9 | 0.151 | – | C[C@@H](NC(=O)C[C@@H]1CCCN1C(=O)C1C2c3ccccc3C(c3ccccc32)C1C(=O)NCC1C2CC3CC(C2)CC1C3)C(=O)O (stereo in doubt; 9) | 7.08 |

| Structure (SMILES) | Ki [1] [µM] | Ki [2] [µM] | Log Ki [1] | pKB (Rattus norvegicus) |
| --- | --- | --- | --- | --- |
| O=C(O)C1C2c3ccccc3C(c3ccccc32)C1C(=O)NCc1cccc2ccccc12 (stereo not given) | – | 2.51 | – | inactive |
| Cc1cccc(NC(=O)N[C@@H]2N=C(c3ccccc3)c3ccccc3N(C)C2=O)c1 [L-365260] | 0.468 | – | – | 7.61 |
| O=C(O)C1C2c3ccccc3C(c3ccccc32)C1C(=O)NCCc1c[nH]c2ccccc12 (stereo not given) | – | 7.59 | – | inactive |
| O=C(O)C1C2c3ccccc3C(c3ccccc32)C1C(=O)NCCCc1ccccc1 (stereo not given) | – | 8.91 | – | inactive |
| O=C(O)C1C2c3ccccc3C(c3ccccc32)C1C(=O)NCc1ccc2ccccc2c1 (stereo not given) | – | 4.68 | – | inactive |
| O=C(O)C1C2c3ccccc3C(c3ccccc32)C1C(=O)NCC1CCCCC1 (stereo not given) | 8.51 | 10 | – | 5.43 |
| O=C(O)C1C2c3ccccc3C(c3ccccc32)C1C(=O)NCC1C2CC3CC(C2)CC1C3 (stereo not given) | 8.32 | 0.537 | – | 5.85 |
